# Reference: US20260092071A1, “COMPOUNDS AND COMPOSITIONS AS SMARCA2/4 DEGRADERS AND USES THEREOF” (REGENTS OF THE UNIVERSITY OF MICHIGAN, priority 2022, published 2026)
# What was measured:
# [1] = biological target: SMARCA2 (Homo sapiens, UniProt P51531); assay: HiBit assay in engineered HT1080 CRISPR knock-in cell, 6 hrs (B series), SMARCA2; type: cell-based; details: 6 hrs incubation; for DC50 / SMARC A2 HT1080 HiBit Dmax (%): HT1080 CRISPR knock-in cells; for DC50: read-out: SMARC A2 HT1080 HiBit DC50; for Dmax: HT-1080, HT1080 CRISPR knock-in cells, read-out: SMARC A2 HT1080 HiBit Dmax (%)
# Chain of SMARCA2 (P51531 whole entry): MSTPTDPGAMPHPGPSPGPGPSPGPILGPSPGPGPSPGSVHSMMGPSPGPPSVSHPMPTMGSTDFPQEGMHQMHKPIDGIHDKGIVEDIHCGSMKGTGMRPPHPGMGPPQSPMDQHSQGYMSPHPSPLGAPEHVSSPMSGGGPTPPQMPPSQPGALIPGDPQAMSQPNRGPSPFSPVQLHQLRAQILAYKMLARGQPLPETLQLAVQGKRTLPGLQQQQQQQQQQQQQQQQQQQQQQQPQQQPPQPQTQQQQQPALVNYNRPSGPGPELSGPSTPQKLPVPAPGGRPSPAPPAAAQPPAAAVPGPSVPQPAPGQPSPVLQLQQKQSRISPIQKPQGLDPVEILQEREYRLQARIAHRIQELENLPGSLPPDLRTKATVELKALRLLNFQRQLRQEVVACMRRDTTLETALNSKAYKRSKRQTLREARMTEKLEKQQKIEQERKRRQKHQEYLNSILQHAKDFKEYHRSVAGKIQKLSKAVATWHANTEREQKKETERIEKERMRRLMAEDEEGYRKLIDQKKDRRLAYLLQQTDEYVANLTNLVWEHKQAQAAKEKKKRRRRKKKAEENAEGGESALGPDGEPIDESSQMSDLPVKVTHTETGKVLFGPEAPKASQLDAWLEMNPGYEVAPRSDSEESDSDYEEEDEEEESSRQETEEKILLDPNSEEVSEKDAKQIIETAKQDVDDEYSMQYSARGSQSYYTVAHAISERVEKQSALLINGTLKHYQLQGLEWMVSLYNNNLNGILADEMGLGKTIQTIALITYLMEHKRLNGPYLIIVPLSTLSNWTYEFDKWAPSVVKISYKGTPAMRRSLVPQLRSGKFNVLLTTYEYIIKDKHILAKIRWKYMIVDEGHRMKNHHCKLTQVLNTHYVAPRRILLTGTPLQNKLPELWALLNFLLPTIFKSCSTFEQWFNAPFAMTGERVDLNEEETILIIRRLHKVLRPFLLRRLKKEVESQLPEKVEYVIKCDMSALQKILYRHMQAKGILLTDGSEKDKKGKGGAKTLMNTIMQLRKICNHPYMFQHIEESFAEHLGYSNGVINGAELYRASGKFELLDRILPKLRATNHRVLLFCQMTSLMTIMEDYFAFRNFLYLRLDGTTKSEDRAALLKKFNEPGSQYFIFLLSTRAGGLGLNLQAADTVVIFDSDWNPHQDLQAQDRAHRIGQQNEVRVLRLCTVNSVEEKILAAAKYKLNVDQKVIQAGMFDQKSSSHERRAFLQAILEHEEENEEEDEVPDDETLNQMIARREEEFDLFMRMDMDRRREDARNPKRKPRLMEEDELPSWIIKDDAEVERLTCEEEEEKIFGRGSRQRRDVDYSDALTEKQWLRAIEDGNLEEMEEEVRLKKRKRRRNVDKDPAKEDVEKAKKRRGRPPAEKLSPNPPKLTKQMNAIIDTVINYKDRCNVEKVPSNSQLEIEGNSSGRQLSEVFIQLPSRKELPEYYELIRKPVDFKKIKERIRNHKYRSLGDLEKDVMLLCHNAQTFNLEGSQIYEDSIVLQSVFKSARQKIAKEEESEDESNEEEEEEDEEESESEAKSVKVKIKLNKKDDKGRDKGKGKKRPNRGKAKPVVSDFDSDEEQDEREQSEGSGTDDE
# Outline: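 Compounds were dispensed first, then HT1080 knock-in cells added and incubated for 6 hrs at 37° C. Next, detection reagent containing LgBiT and lytic substrate was added. Plates were shaken 10 min and centrifuged, and luminescence was measured.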
# [2] = biological target: SMARCA4 (Homo sapiens, UniProt P51532); assay: HiBit assay in engineered HT1080 CRISPR knock-in cell, 6 hrs (B series), SMARCA4; type: cell-based; details: 6 hrs incubation; for DC50: read-out: SMARC A4 HT1080 HiBit DC50; for Dmax: HT-1080, HT1080 CRISPR knock-in cells, read-out: SMARC A4 HT1080 HiBit Dmax(%)
# Chain of SMARCA4 (P51532 whole entry): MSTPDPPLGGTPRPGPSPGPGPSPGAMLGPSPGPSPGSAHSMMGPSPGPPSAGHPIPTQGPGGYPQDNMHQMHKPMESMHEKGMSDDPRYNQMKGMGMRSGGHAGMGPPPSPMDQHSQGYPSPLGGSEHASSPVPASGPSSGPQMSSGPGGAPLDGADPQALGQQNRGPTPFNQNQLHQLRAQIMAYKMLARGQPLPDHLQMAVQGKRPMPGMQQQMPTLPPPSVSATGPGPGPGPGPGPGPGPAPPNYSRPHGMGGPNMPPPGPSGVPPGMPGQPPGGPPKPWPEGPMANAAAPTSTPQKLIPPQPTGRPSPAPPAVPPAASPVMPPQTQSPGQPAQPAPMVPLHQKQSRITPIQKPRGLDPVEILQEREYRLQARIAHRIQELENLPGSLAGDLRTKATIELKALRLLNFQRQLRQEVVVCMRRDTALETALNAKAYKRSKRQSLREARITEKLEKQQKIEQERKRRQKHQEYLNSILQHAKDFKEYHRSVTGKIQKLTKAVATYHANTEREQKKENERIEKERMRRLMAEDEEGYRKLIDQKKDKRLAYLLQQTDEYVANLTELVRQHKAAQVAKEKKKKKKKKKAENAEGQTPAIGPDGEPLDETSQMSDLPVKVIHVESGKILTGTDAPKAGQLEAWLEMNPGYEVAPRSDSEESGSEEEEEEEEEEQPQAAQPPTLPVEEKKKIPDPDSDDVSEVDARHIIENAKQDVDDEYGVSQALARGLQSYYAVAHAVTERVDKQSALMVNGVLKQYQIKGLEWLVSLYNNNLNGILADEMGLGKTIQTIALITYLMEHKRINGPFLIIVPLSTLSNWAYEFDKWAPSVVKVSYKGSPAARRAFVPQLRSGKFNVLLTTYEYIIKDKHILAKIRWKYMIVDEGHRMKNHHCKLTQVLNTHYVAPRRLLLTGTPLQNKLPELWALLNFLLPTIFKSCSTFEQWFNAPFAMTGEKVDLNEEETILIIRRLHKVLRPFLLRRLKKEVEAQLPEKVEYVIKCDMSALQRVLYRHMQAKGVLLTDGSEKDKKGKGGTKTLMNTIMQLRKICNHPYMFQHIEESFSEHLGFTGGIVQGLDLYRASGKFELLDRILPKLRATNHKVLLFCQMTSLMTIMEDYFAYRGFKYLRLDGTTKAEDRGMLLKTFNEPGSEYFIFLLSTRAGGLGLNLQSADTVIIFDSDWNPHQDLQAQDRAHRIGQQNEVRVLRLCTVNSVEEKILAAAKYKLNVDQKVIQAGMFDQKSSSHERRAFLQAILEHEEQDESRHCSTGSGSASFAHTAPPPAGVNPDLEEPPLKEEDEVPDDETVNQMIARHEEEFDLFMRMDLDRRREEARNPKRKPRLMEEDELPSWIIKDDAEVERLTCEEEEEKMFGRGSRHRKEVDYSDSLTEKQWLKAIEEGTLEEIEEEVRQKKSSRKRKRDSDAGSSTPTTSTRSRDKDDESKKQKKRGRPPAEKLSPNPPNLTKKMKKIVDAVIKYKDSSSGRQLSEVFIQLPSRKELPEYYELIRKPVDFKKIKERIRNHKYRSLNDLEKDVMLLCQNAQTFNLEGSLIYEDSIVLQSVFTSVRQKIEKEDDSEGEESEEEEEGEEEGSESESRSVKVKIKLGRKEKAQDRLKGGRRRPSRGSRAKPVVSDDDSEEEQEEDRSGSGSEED
# Outline: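 Engineered HT1080 knock-in cells, 2000 cells/well, 6 hrs compound exposure, 37° C/5% CO2, 0.1% DMSO final. Lytic detection: LgBiT 1:100 plus HiBiT substrate 1:50 in lytic buffer, 10 min shake at RT, luminescence read.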
compound,measurement,setting,value
"Cc1cc(C(C(=O)N2C[C@H](O)C[C@H]2C(=O)N[C@@H](C)c2ccc(-c3scnc3C#CCOCCCN3CCC(c4cccc5c4C(C)(C)c4nc(=O)c6c(Cl)cccc6n4-5)CC3)cc2)C(C)C)on1 (stereo partly drawn) [Compound B145, (2S,4R)-N-((S)-1-(4-(4-(3-(3-(4-(4-chloro-7,7-dimethyl-5-oxo-5,7-dihydroindolo[1,2-a]quinazolin-8-yl)piperidin-1-yl)propoxy)prop-1-yn-1-yl)thiazol-5-yl)phenyl)ethyl)-4-hydroxy-1-(3-methyl-2-(3-methylisoxazol-5-yl)butanoyl)pyrrolidine-2-carboxamide]",DC50,[1],100 to 500 nM
same,Dmax,[1],70 to 90%
same,DC50,[2]; HT1080 CRISPR knock-in cells,100 to 500 nM
same,Dmax,[2],50 to 69%
"Cc1ncsc1-c1ccc2c(c1)CCC[C@@H]2NC(=O)[C@@H]1C[C@@H](O)CN1C(=O)[C@@H](n1cc([C@H]2CC[C@H](CN3CCC(c4ccc5c(c4)-n4c(nc(=O)c6c(Cl)cccc64)C5(C)C)CC3)CC2)nn1)C(C)(C)C [Compound B146, (2S,4R)-1-((S)-2-(4-((1r,4S)-4-((4-(4-chloro-7,7-dimethyl-5-oxo-5,7-dihydroindolo[1,2-a]quinazolin-10-yl)piperidin-1-yl)methyl)cyclohexyl)-1H-1,2,3-triazol-1-yl)-3,3-dimethylbutanoyl)-4-hydroxy-N-((S)-6-(4-methylthiazol-5-yl)-1,2,3,4-tetrahydronaphthalen-1-yl)pyrrolidine-2-carboxamide]",DC50,[1],< 100 nM
same,Dmax,[1],> 90%
same,DC50,[2]; HT1080 CRISPR knock-in cells,100 to 500 nM
same,Dmax,[2],50 to 69%
"Cc1cc([C@H](C(=O)N2C[C@H](O)C[C@H]2C(=O)N[C@@H](C)c2ccc(-c3scnc3C(=O)NCCCCOCCN3CCC(c4ccc5c(c4)-n4c(nc(=O)c6c(Cl)cccc64)C5(C)C)CC3)cc2)C(C)C)on1 [Compound B147, N-(4-(2-(4-(4-chloro-7,7-dimethyl-5-oxo-5,7-dihydroindolo[1,2-a]quinazolin-10-yl)piperidin-1-yl)ethoxy)butyl)-5-(4-((S)-1-((2S,4R)-4-hydroxy-1-((R)-3-methyl-2-(3-methylisoxazol-5-yl)butanoyl)pyrrolidine-2-carboxamido)ethyl)phenyl)thiazole-4-carboxamide]",DC50,[1],100 to 500 nM
same,Dmax,[1],50 to 69%
same,DC50,[2]; HT1080 CRISPR knock-in cells,501 to 1000 nM
same,Dmax,[2],50 to 69%
"Cc1ncsc1-c1ccc2c(NC(=O)[C@@H]3C[C@@H](O)CN3C(=O)[C@@H](n3cc([C@H]4CC[C@H](CN5CCC(c6ccc7c(c6)-n6c(nc(=O)c8c(Cl)cccc86)C7(C)C)CC5)CC4)nn3)C(C)(C)C)n[nH]c2c1 [Compound B148, (2S,4R)-1-((S)-2-(4-((1r,4S)-4-((4-(4-chloro-7,7-dimethyl-5-oxo-5,7-dihydroindolo[1,2-a]quinazolin-10-yl)piperidin-1-yl)methyl)cyclohexyl)-1H-1,2,3-triazol-1-yl)-3,3-dimethylbutanoyl)-4-hydroxy-N-(6-(4-methylthiazol-5-yl)-1H-indazol-3-yl)pyrrolidine-2-carboxamide]",DC50,[1],100 to 500 nM
same,Dmax,[1],< 50%
same,DC50,[2]; HT1080 CRISPR knock-in cells,< 100 nM
same,Dmax,[2],< 50%
"Cc1cc(-c2scnc2C)ccc1[C@H](C)NC(=O)[C@@H]1C[C@@H](O)CN1C(=O)[C@@H](n1cc([C@H]2CC[C@H](CN3CCC(c4ccc5c(c4)-n4c(nc(=O)c6c(Cl)cccc64)C5(C)C)CC3)CC2)nn1)C(C)(C)C [Compound B149, (2S,4R)-1-((S)-2-(4-((1r,4S)-4-((4-(4-chloro-7,7-dimethyl-5-oxo-5,7-dihydroindolo[1,2-a]quinazolin-10-yl)piperidin-1-yl)methyl)cyclohexyl)-1H-1,2,3-triazol-1-yl)-3,3-dimethylbutanoyl)-4-hydroxy-N-((S)-1-(2-methyl-4-(4-methylthiazol-5-yl)phenyl)ethyl)pyrrolidine-2-carboxamide]",DC50,[1],< 100 nM
same,Dmax,[1],> 90%
same,DC50,[2]; HT1080 CRISPR knock-in cells,< 100 nM
same,Dmax,[2],70 to 90%
"Cc1cc(C(C(=O)N2C[C@H](O)C[C@H]2C(=O)N[C@@H](C)c2ccc(-c3scnc3C#CCN3CCC(c4cccc5c4C(C)(C)c4nc(=O)c6c(Cl)cccc6n4-5)CC3)cc2)C(C)C)on1 (stereo partly drawn) [Compound B150, (2S,4R)-N-((S)-1-(4-(4-(3-(4-(4-chloro-7,7-dimethyl-5-oxo-5,7-dihydroindolo[1,2-a]quinazolin-8-yl)piperidin-1-yl)prop-1-yn-1-yl)thiazol-5-yl)phenyl)ethyl)-4-hydroxy-1-(3-methyl-2-(3-methylisoxazol-5-yl)butanoyl)pyrrolidine-2-carboxamide]",DC50,[1],< 100 nM
same,Dmax,[1],50 to 69%
same,DC50,[2]; HT1080 CRISPR knock-in cells,100 to 500 nM
same,Dmax,[2],< 50%
"Cc1ncsc1-c1ccc2c(c1)CCC[C@H]2NC(=O)[C@@H]1C[C@@H](O)CN1C(=O)[C@@H](n1cc([C@H]2CC[C@H](CN3CCC(c4ccc5c(c4)-n4c(nc(=O)c6c(Cl)cccc64)C5(C)C)CC3)CC2)nn1)C(C)(C)C [Compound B151, (2S,4R)-1-((S)-2-(4-((1r,4S)-4-((4-(4-chloro-7,7-dimethyl-5-oxo-5,7-dihydroindolo[1,2-a]quinazolin-10-yl)piperidin-1-yl)methyl)cyclohexyl)-1H-1,2,3-triazol-1-yl)-3,3-dimethylbutanoyl)-4-hydroxy-N-((R)-6-(4-methylthiazol-5-yl)-1,2,3,4-tetrahydronaphthalen-1-yl)pyrrolidine-2-carboxamide]",DC50,[1],< 100 nM
same,Dmax,[1],> 90%
same,DC50,[2]; HT1080 CRISPR knock-in cells,100 to 500 nM
same,Dmax,[2],50 to 69%
"Cc1cc(C(C(=O)N2C[C@H](O)C[C@H]2C(=O)N[C@@H](CCN2CCC(c3cccc4c3C(C)(C)c3nc(=O)c5c(Cl)cccc5n3-4)CC2)c2ccc(-c3scnc3C)cc2)C(C)C)on1 (stereo partly drawn) [Compound B152, (2S,4R)—N—((S)-3-(4-(4-chloro-7,7-dimethyl-5-oxo-5,7-dihydroindolo[1,2-a]quinazolin-8-yl)piperidin-1-yl)-1-(4-(4-methylthiazol-5-yl)phenyl)propyl)-4-hydroxy-1-(3-methyl-2-(3-methylisoxazol-5-yl)butanoyl)pyrrolidine-2-carboxamide]",SMARC A2 HT1080 HiBit Dmax (%),[1],A (A (>90% degradation))
same,DC50,[1],< 100 nM
same,DC50,[2]; HT1080 CRISPR knock-in cells,< 100 nM
same,Dmax,[2],70 to 90%
"Cc1cc(C(C(=O)N2C[C@H](O)C[C@H]2C(=O)N[C@@H](CN2CCC(c3cccc4c3C(C)(C)c3nc(=O)c5c(Cl)cccc5n3-4)CC2)c2ccc(-c3scnc3C)cc2)C(C)C)on1 (stereo partly drawn) [Compound B153, (2S,4R)-N-((R)-2-(4-(4-chloro-7,7-dimethyl-5-oxo-5,7-dihydroindolo[1,2-a]quinazolin-8-yl)piperidin-1-yl)-1-(4-(4-methylthiazol-5-yl)phenyl)ethyl)-4-hydroxy-1-(3-methyl-2-(3-methylisoxazol-5-yl)butanoyl)pyrrolidine-2-carboxamide]",DC50,[1],< 100 nM
same,Dmax,[1],70 to 90%
same,DC50,[2]; HT1080 CRISPR knock-in cells,< 100 nM
same,Dmax,[2],70 to 90%
"Cc1cc(C(C(=O)N2C[C@H](O)C[C@H]2C(=O)N[C@@H](CN2CCC(c3cccc4c3C(C)(C)c3nc(=O)c5c(Cl)cccc5n3-4)CC2)c2ccc(-c3scnc3C)cc2)C(C)C)on1 (stereo partly drawn) [Compound B154, (2S,4R)-N-((R)-2-(4-(4-chloro-7,7-dimethyl-5-oxo-5,7-dihydroindolo[1,2-a]quinazolin-8-yl)piperidin-1-yl)-1-(4-(4-methylthiazol-5-yl)phenyl)ethyl)-4-hydroxy-1-(3-methyl-2-(3-methylisoxazol-5-yl)butanoyl)pyrrolidine-2-carboxamide]",SMARC A2 HT1080 HiBit Dmax (%),[1],A (A (>90% degradation))
same,DC50,[1],< 100 nM
same,SMARC A4 HT1080 HiBit Dmax(%),[2]; HT1080 CRISPR knock-in cells,B (B (70-90% degradation))
same,DC50,[2]; HT1080 CRISPR knock-in cells,< 100 nM
"Cc1cc(C(C(=O)N2C[C@H](O)C[C@H]2C(=O)N[C@@H](CN2CCC(N3CCC(c4cccc5c4C(C)(C)c4nc(=O)c6c(Cl)cccc6n4-5)CC3)CC2)c2ccc(-c3scnc3C)cc2)C(C)C)on1 (stereo partly drawn) [Compound B155, (2S,4R)-N-((R)-2-(4-(4-chloro-7,7-dimethyl-5-oxo-5,7-dihydroindolo[1,2-a]quinazolin-8-yl)-[1,4'-bipiperidin]-1'-yl)-1-(4-(4-methylthiazol-5-yl)phenyl)ethyl)-4-hydroxy-1-(3-methyl-2-(3-methylisoxazol-5-yl)butanoyl)pyrrolidine-2-carboxamide]",DC50,[1],< 100 nM
same,Dmax,[1],> 90%
same,DC50,[2]; HT1080 CRISPR knock-in cells,< 100 nM
same,Dmax,[2],70 to 90%
"C[C@H](NC(=O)[C@@H]1C[C@@H](O)CN1C(=O)[C@@H](n1cc([C@H]2CC[C@H](CN3CCC(c4ccc5c(c4)-n4c(nc(=O)c6c(Cl)cccc64)C5(C)C)CC3)CC2)nn1)C(C)(C)C)c1ccc(-c2scnc2C#CCN2CCOCC2)cc1 [Compound B156, (2S,4R)-1-((R)-2-(4-((1r,4R)-4-((4-(4-chloro-7,7-dimethyl-5-oxo-5,7-dihydroindolo[1,2-a]quinazolin-10-yl)piperidin-1-yl)methyl)cyclohexyl)-1H-1,2,3-triazol-1-yl)-3,3-dimethylbutanoyl)-4-hydroxy-N-((S)-1-(4-(4-(3-morpholinoprop-1-yn-1-yl)thiazol-5-yl)phenyl)ethyl)pyrrolidine-2-carboxamide]",DC50,[1],< 100 nM
same,Dmax,[1],> 90%
same,DC50,[2]; HT1080 CRISPR knock-in cells,< 100 nM
same,Dmax,[2],50 to 69%
